Key:
TLR4 [1] = molecular target: T1, TLR4 (Mus musculus, UniProt Q9JHF9+Q9QUK6); assay: in vitro cell based activity assay, IP-10 upregulation in mouse macrophages (J774 cell line)
T1 construct: endogenous in cells; host or cells: J774 mouse macrophage cell line
T1 sequence (Q9QUK6 26-835): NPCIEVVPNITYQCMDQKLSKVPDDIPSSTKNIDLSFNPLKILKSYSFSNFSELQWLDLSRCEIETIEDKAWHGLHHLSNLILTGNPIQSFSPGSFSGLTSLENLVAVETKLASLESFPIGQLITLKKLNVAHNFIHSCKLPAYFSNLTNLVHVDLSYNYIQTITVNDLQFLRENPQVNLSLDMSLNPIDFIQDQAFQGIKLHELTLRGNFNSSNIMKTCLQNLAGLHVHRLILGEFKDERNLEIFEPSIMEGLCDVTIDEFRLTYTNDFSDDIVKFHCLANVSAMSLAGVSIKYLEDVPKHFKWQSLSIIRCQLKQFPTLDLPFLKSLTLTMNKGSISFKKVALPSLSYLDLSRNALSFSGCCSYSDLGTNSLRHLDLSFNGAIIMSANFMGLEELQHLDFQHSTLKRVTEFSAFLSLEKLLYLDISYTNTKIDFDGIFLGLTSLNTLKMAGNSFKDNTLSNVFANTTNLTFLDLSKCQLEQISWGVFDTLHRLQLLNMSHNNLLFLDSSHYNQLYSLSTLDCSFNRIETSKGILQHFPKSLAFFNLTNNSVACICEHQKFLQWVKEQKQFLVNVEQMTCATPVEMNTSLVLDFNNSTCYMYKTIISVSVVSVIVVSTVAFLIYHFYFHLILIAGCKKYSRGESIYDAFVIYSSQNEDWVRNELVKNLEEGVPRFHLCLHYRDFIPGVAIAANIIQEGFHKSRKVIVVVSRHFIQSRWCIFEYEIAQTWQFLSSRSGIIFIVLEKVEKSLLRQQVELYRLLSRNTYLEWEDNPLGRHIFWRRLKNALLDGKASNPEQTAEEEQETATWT
T1 sequence (Q9JHF9 19-160): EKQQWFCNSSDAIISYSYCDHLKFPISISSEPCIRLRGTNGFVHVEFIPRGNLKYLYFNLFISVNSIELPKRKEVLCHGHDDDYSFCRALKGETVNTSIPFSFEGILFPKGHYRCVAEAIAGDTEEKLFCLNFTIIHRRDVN
Excerpt: Interferon-β is required for production of IP-10, therefore IP-10 is considered a surrogate marker for Type I interferon activity.
(§1) IP-10 is an important cytokine associated with stimulation of the TRIF pathway. Evidence of IL-6 and IL-10 and IP-10 upregulation is confirmation that PHAD preparations as noted in this application are capable of TLR4 stimulation, with a bias toward stimulating the TRIF pathway, which is further confirmation of the amelioration or reduction of activity mediated through the MyD88 signaling pathway, which supports the amelioration of pro-inflammatory cytokine production.

TLR4 [2] = molecular target: T2, TLR4 (Rattus norvegicus, UniProt Q9QX05); assay: IL-6 and IL-10 cytokine response after IV administration in rats; assay type: in vivo
T2 construct: from tissue; host or cells: whole animal (rat), in vivo
T2 sequence (Q9QX05 26-835): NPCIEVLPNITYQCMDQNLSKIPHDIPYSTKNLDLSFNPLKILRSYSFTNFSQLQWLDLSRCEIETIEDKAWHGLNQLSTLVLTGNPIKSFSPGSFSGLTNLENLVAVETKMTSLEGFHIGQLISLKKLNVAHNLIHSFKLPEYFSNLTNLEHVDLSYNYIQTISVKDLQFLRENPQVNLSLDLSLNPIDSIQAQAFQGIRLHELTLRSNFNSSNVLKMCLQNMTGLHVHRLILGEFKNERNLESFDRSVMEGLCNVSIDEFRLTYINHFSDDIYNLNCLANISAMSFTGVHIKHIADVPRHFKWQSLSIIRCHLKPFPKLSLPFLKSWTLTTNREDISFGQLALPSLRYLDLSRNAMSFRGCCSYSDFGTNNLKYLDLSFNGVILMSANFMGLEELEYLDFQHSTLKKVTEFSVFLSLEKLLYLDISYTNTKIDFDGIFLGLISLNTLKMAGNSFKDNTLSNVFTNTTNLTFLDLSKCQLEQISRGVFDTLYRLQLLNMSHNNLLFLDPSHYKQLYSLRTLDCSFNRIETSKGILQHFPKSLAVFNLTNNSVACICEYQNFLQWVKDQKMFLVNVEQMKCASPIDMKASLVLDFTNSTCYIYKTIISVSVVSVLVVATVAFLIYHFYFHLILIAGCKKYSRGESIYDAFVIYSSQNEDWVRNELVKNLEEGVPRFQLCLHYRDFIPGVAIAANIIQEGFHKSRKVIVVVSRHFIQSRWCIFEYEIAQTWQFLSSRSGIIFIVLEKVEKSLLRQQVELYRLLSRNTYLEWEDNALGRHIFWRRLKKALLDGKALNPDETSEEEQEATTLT
Excerpt: as §1

[3] = second dose at 24 hours, compared with first dose

Substance: phosphorylated hexaacyl disaccharide [PHAD]
- upregulation of IP-10 as a result of TLR4 stimulation (TLR4 [1]): IP-10 upregulation as a function of dose
- anti-inflammatory cytokines (e.g., IL-10) following a second dose (TLR4 [2]; [3]): larger increase
- pro-inflammatory cytokines (e.g., IL-6) following a second dose (TLR4 [2]; [3]): smaller increase
- inflammatory and protective cytokines following a first dose (TLR4 [2]; two doses of PHAD, after first dose): initial increase

— US20260174857A1, “METHODS OF ADJUVANT TREATMENT FOR ALLERGY IMMUNOTHERAPY” (Revelation Biosciences, Inc., priority 2022, published 2026)
